Drawing on patent US20070254877A1, “Indole Derivative and Use for Treatment of Cancer” (Takada Pharmaceutical Company Limited, priority 2004, published 2007), this text covers inhibition for twelve compounds.

The structures appear in SMILES notation. Counter-ions that a name gives are not always drawn.

For the test, the target named is T1, VEGFR2 intracellular domain protein (Homo sapiens, UniProt P35968).
T1 construct: made in house; host or cells: SF-21 insect cells infected with recombinant baculovirus BAC-VEGFR2
T1 sequence (P35968 786-1356 limits assumed): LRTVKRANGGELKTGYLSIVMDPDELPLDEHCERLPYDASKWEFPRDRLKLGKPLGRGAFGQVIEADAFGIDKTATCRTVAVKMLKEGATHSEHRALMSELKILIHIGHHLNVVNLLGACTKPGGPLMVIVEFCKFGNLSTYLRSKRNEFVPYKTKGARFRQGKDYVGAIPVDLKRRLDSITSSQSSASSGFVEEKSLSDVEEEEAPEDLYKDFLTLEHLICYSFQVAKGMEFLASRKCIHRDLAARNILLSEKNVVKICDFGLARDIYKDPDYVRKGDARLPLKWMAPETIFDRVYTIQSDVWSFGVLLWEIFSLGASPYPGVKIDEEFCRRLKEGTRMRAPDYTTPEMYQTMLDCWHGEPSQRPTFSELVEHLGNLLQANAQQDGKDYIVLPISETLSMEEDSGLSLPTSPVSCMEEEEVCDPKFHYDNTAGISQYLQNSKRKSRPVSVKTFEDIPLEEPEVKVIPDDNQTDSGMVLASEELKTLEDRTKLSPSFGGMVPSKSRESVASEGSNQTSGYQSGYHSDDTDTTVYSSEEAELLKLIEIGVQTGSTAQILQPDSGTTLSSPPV
The experiment in a line: Determination of VEGF Receptor 2 Kinase (VEGFR2) inhibitory activity (AlphaScreen). It counts as biochemical. The settings on record: test compound at 1 μM; ATP 25 μM buffer, 25° C., 5 min; read-out: kinase inhibitory rate (%). On the procedure: Human VEGF receptor 2 (hereinafter to be abbreviated as VEGFR2) gene was cloned by PCR using cDNA Libraries Human Placenta (Clontech) as a template. The primer used for PCR was prepared from nucleotide sequence (Genbank Accession AF035121) information of VEGFR2 gene by adding a nucleotide sequence encoding flag peptide and a restriction enzyme recognition sequence to a nucleotide sequence (2671-4374 of Genbank Accession AF035121) encoding the VEGFR2 intracellular domain region, so that the protein contains an N-terminal flag tag. The primer nucleotide sequence is shown below.
SF-21 cells were sown at 1×10^6 cells/ml to Sf-900II SFM medium (1 L, Invitrogen) containing 10% fetal bovine serum (trace), 50 mg/L gentamicin (Invitrogen) and 0.1% Pluronic F-68 (Invitrogen), and shaking culture was performed using a 2 L volume Erlenmeyer flask at 27° C., 100 rpm. After culturing for 24 hrs, recombinant baculovirus BAC-VEGFR2 (13.4 mL) was added, and the mixture was further cultured for 3 days. The culture medium was centrifuged at 2,000 rpm for 5 min to give virus-infected cells. The infected cells were washed with a phosphate buffered saline (Invitrogen), centrifuged under the same conditions, and the cells were preserved at −80° C. The cryopreserved cells were thawed in ice, suspended in buffer A (50 mM Tris buffer (30 mL, pH 7.4) containing 20% glycerol, 0.15 M NaCl) supplemented with Complete Protease Inhibitor (Boehringer), and ruptured 3 times with a Polytron homogenizer (Kinematica) at 20,000 rpm for 30 sec. The rupture medium was clarified by centrifugation at 40,000 rpm for 30 min and filtered with a 0.45 μm filter. The filtrate was passed through a column packed with Anti-FLAG M2 Affinity Gel (4 mL, Sigma) at a flow rate of about 0.5 mL/min. The column was washed with buffer A, and eluted with buffer A containing 100 μg/mL of FLAG peptide. The eluate was concentrated with Vivaspin 20 (Vivascience) having a molecular weight cut off of 30K. The buffer of this concentrate was exchanged using NAP™ 25 column (Amersham Bioscience) equilibrated with buffer A. The fractions containing VEGFR2 intracellular domain protein were collected, glycerol was added to the final concentration of 50% and cryopreserved at −80° C.
A test compound dissolved in dimethyl sulfoxide (DMSO) was diluted with a buffer (50 mM Tris-HCl (pH 7.5), 5 mM MgCl2, 5 mM MnCl2, 2 mM dithiothreitol, 0.01% Tween-20). To this compound solution (5 μl) was added a buffer […] containing 50 ng/ml of VEGFR2 intracellular domain protein and 250 ng/ml of biotin labeled polypeptide biotinyl-poly-Glu:Tyr (4:1) (CIS bio International). To the obtained mixture was added a buffer (10 μl) containing ATP (25 μM), the mixture was allowed to react at 25° C. for 5 min and the reaction was quenched with 25 μl of a stop solution (100 mM EDTA disodium salt, 62.5 mM HEPES buffer (pH 7.4), 250 mM NaCl, 0.1% bovine serum albumin, 10 μg/ml AlphaScreen assay streptavidin donor beads (Streptavidin Donor beads: PerkinElmer), 10 μg/ml AlphaScreen assay anti-phosphotyrosine recognition antibody PY-100 binding acceptor beads (Anti-phosphotyrosine (P-Tyr-100) Acceptor beads: PerkinElmer)). The reaction solution was allowed to stand at 25° C. for 16 hrs, and the […] using a plate reader Fusion™ (manufactured by PerkinElmer). The kinase inhibitory rate (%) of the test compound was calculated by the following formula: Inhibitory rate (%)=(1−(count of test compound−blank)÷(control−blank))×100
The count of the solution reacted without addition of the compound was used as a “control”, and the count of the solution without the compound and ATP was used as a “blank”.
Consider `O=C(c1ccc2[nH]c3c(c2c1)CCCc1cn[nH]c1-3)N1CCC(N2CCCCCC2)CC1` [Example 11, 8-[(4-azepan-1-ylpiperidin-1-yl)carbonyl]-4,5,6,11-tetrahydro-1H-pyrazolo[4′,3′:6,7]cyclohepta[1,2-b]indole hydrochloride], for which the inhibition at 1 µM was at least 90%.

For the compound `O=C(c1ccc2[nH]c3c(c2c1)CCCc1cn[nH]c1-3)N1CCC(N2CCSCC2)CC1` [Example 15, 8-[(4-thiomorpholin-4-ylpiperidin-1-yl)carbonyl]-4,5,6,11-tetrahydro-1H-pyrazolo[4′,3′:6,7]cyclohepta[1,2-b]indole hydrochloride], the inhibition at 1 µM was at least 90%.

In the case of `O=C(c1ccc2[nH]c3c(c2c1)CCCc1cn[nH]c1-3)N1CCC(NCc2ccccc2)CC1` [Example 17, N-benzyl-1-(4,5,6,11-tetrahydro-1H-pyrazolo[4′,3′:6,7]cyclohepta[1,2-b]indol-8-ylcarbonyl)piperidin-4-amine hydrochloride], the inhibition at 1 µM was at least 90%.

On to `O=C(c1ccc2[nH]c3c(c2c1)CCCc1cn[nH]c1-3)N1CCC(O)(c2ccc(F)cc2)CC1` [Example 41, 4-(4-fluorophenyl)-1-(4,5,6,11-tetrahydro-1H-pyrazolo[4′,3′:6,7]cyclohepta[1,2-b]indol-8-ylcarbonyl)piperidin-4-ol], for which the inhibition at 1 µM was at least 80%.

For `O=C(c1ccc2[nH]c3c(c2c1)CCCc1cn[nH]c1-3)N1CCC(O)(c2cccc(F)c2)CC1` [Example 42, 4-(3-fluorophenyl)-1-(4,5,6,11-tetrahydro-1H-pyrazolo[4′,3′:6,7]cyclohepta[1,2-b]indol-8-ylcarbonyl)piperidin-4-ol], the inhibition at 1 µM is at least 80%.

As to `O=C(c1ccc2[nH]c3c(c2c1)CCCc1cn[nH]c1-3)N1CCC(O)(c2ccccc2F)CC1` [Example 43, 4-(2-fluorophenyl)-1-(4,5,6,11-tetrahydro-1H-pyrazolo[4′,3′:6,7]cyclohepta[1,2-b]indol-8-ylcarbonyl)piperidin-4-ol], the inhibition at 1 µM was at least 80%.

With `O=C(c1ccc2[nH]c3c(c2c1)CCCc1cn[nH]c1-3)N1CCC(O)(c2ccc(Cl)cc2)CC1` [Example 44, 4-(4-chlorophenyl)-1-(4,5,6,11-tetrahydro-1H-pyrazolo[4′,3′:6,7]cyclohepta[1,2-b]indol-8-ylcarbonyl)piperidin-4-ol], the inhibition at 1 µM was at least 80%.

Consider `O=C(c1ccc2[nH]c3c(c2c1)CCCc1cn[nH]c1-3)N1CCC(O)(c2cccc(Cl)c2)CC1` [Example 45, 4-(3-chlorophenyl)-1-(4,5,6,11-tetrahydro-1H-pyrazolo[4′,3′:6,7]cyclohepta[1,2-b]indol-8-ylcarbonyl)piperidin-4-ol], for which the inhibition at 1 µM is at least 80%.

`O=C(c1ccc2[nH]c3c(c2c1)CCCc1cn[nH]c1-3)N1CCC(O)(c2ccccc2Cl)CC1` [Example 46, 4-(2-chlorophenyl)-1-(4,5,6,11-tetrahydro-1H-pyrazolo[4′,3′:6,7]cyclohepta[1,2-b]indol-8-ylcarbonyl)piperidin-4-ol]: the inhibition at 1 µM is at least 80%.

Take `O=C(c1ccc2[nH]c3c(c2c1)CCCc1cn[nH]c1-3)N1CCC(O)(c2ccc(C(F)(F)F)cc2)CC1` [Example 47, 1-(4,5,6,11-tetrahydro-1H-pyrazolo[4′,3′:6,7]cyclohepta[1,2-b]indol-8-ylcarbonyl)-4-[4-(trifluoromethyl)phenyl]piperidin-4-ol]: the inhibition at 1 µM was at least 80%.

For the compound `O=C(c1ccc2[nH]c3c(c2c1)CCCc1cn[nH]c1-3)N1CCC(O)(c2cccc(C(F)(F)F)c2)CC1` [Example 48, 1-(4,5,6,11-tetrahydro-1H-pyrazolo[4′,3′:6,7]cyclohepta[1,2-b]indol-8-ylcarbonyl)-4-[3-(trifluoromethyl)phenyl]piperidin-4-ol], the inhibition at 1 µM is at least 80%.

In the case of `O=C(c1ccc2[nH]c3c(c2c1)CCCc1cn[nH]c1-3)N1CCC(O)(c2ccccc2C(F)(F)F)CC1` [Example 49, 1-(4,5,6,11-tetrahydro-1H-pyrazolo[4′,3′:6,7]cyclohepta[1,2-b]indol-8-ylcarbonyl)-4-[2-(trifluoromethyl)phenyl]piperidin-4-ol], the inhibition at 1 µM is at least 80%.
